From patent publication US20250223268A1, “4-Methylsulfonylbenzamide Compound, Preparation Method, Herbicidal Composition And Use” (Jiangsu Flag Chemical Industry Co., Ltd., priority 2022, published 2025)

Assays:
Test in all cases: Greenhouse herbicidal activity assay, post-emergence
Format in all cases: in vivo
Settings in all cases: Post-emergence test, rate 150 g a.i./hm^2; grade by fresh weight inhibition rate
Echinochloa crusgalli = tested on: Echinochloa crusgalli
Outline: (§1)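 Letter grades (A: ≥80% to 100%; C: ≥40% to <60%; E: <20%) express fresh weight inhibition recorded 14-21 days post-spray. Weeds were treated on the leaves once they reached 3-6 leaves in chamber-grown pots, allowed to dry naturally, then kept in the chamber.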

Eclipta prostrata = tested on: Eclipta prostrata
Outline: as §1

Leptochloa chinensis = tested on: Leptochloa chinensis
Outline: as §1

Cyperus iria = tested on: Cyperus iria
Outline: as §1

Digitaria sanguinalis = tested on: Digitaria sanguinalis
Outline: as §1

Row | Compound | Control efficacy grade, Echinochloa crusgalli (Echinochloa crusgalli) | Control efficacy grade, Eclipta prostrata (Eclipta prostrata) | Control efficacy grade, Leptochloa chinensis (Leptochloa chinensis) | Control efficacy grade, Cyperus iria (Cyperus iria) | Control efficacy grade, Digitaria sanguinalis (Digitaria sanguinalis)
1 | Cc1nnc(NC(=O)c2ccc(S(C)(=O)=O)c(SCC(C)C)c2Cl)o1 [Compound 3-27] | A (Fresh weight inhibition rate≥80% to 100%) | A (Fresh weight inhibition rate≥80% to 100%) | A (Fresh weight inhibition rate≥80% to 100%) | A (Fresh weight inhibition rate≥80% to 100%) | A (Fresh weight inhibition rate≥80% to 100%)
2 | C#CCSc1c(S(C)(=O)=O)ccc(C(=O)Nc2nnc(C)o2)c1Cl [Compound 3-147] | B (Fresh weight inhibition rate≥260% to <80%) | A (Fresh weight inhibition rate≥80% to 100%) | A (Fresh weight inhibition rate≥80% to 100%) | B (Fresh weight inhibition rate≥260% to <80%) | A (Fresh weight inhibition rate≥80% to 100%)
3 | CCC(C)Sc1c(S(C)(=O)=O)ccc(C(=O)Nc2nnco2)c1Cl (single isomer, unassigned) [Compound 3-283] | A (Fresh weight inhibition rate≥80% to 100%) | A (Fresh weight inhibition rate≥80% to 100%) | A (Fresh weight inhibition rate≥80% to 100%) | A (Fresh weight inhibition rate≥80% to 100%) | A (Fresh weight inhibition rate≥80% to 100%)
4 | CCCC[S+]([O-])c1c(S(C)(=O)=O)ccc(C(=O)Nc2nnc(C)o2)c1Cl (racemic) [Compound 3-12] | A (Fresh weight inhibition rate≥80% to 100%) | A (Fresh weight inhibition rate≥80% to 100%) | A (Fresh weight inhibition rate≥80% to 100%) | A (Fresh weight inhibition rate≥80% to 100%) | A (Fresh weight inhibition rate≥80% to 100%)
5 | CCCC[S+]([O-])c1c(S(C)(=O)=O)ccc(C(=O)Nc2nnc(CC)o2)c1Cl (racemic) [Compound 3-394] | A (Fresh weight inhibition rate≥80% to 100%) | A (Fresh weight inhibition rate≥80% to 100%) | A (Fresh weight inhibition rate≥80% to 100%) | A (Fresh weight inhibition rate≥80% to 100%) | A (Fresh weight inhibition rate≥80% to 100%)
6 | Cc1nnc(NC(=O)c2ccc(S(C)(=O)=O)c(SC3CCC3)c2Cl)o1 [Compound 3-82] | A (Fresh weight inhibition rate≥80% to 100%) | A (Fresh weight inhibition rate≥80% to 100%) | A (Fresh weight inhibition rate≥80% to 100%) | A (Fresh weight inhibition rate≥80% to 100%) | A (Fresh weight inhibition rate≥80% to 100%)
7 | CCC(C)Sc1c(S(C)(=O)=O)ccc(C(=O)Nc2nnco2)c1Cl (racemic) [Compound 3-282] | A (Fresh weight inhibition rate≥80% to 100%) | A (Fresh weight inhibition rate≥80% to 100%) | A (Fresh weight inhibition rate≥80% to 100%) | A (Fresh weight inhibition rate≥80% to 100%) | B (Fresh weight inhibition rate≥260% to <80%)
8 | CC(C)[S+]([O-])c1c(S(C)(=O)=O)ccc(C(=O)Nc2nnc(C3CC3)o2)c1Cl (single isomer, unassigned) [Compound 3-622] | A (Fresh weight inhibition rate≥80% to 100%) | A (Fresh weight inhibition rate≥80% to 100%) | A (Fresh weight inhibition rate≥80% to 100%) | A (Fresh weight inhibition rate≥80% to 100%) | A (Fresh weight inhibition rate≥80% to 100%)
9 | CCc1nnc(NC(=O)c2ccc(S(C)(=O)=O)c([S+]([O-])CC(F)F)c2Cl)o1 (racemic) [Compound 3-445] | A (Fresh weight inhibition rate≥80% to 100%) | A (Fresh weight inhibition rate≥80% to 100%) | A (Fresh weight inhibition rate≥80% to 100%) | A (Fresh weight inhibition rate≥80% to 100%) | A (Fresh weight inhibition rate≥80% to 100%)
10 | CCCC[S+]([O-])c1c(S(C)(=O)=O)ccc(C(=O)Nc2nnc(C3CC3)o2)c1Cl (racemic) [Compound 3-626] | A (Fresh weight inhibition rate≥80% to 100%) | A (Fresh weight inhibition rate≥80% to 100%) | A (Fresh weight inhibition rate≥80% to 100%) | A (Fresh weight inhibition rate≥80% to 100%) | A (Fresh weight inhibition rate≥80% to 100%)
11 | C=CC[S+]([O-])c1c(S(C)(=O)=O)ccc(C(=O)Nc2nnco2)c1Cl (racemic) [Compound 3-339] | A (Fresh weight inhibition rate≥80% to 100%) | A (Fresh weight inhibition rate≥80% to 100%) | A (Fresh weight inhibition rate≥80% to 100%) | A (Fresh weight inhibition rate≥80% to 100%) | A (Fresh weight inhibition rate≥80% to 100%)
12 | CCCCSc1c(S(C)(=O)=O)ccc(C(=O)Nc2nnc(C)o2)c1Cl [Compound 3-11] | B (Fresh weight inhibition rate≥260% to <80%) | A (Fresh weight inhibition rate≥80% to 100%) | A (Fresh weight inhibition rate≥80% to 100%) | A (Fresh weight inhibition rate≥80% to 100%) | A (Fresh weight inhibition rate≥80% to 100%)
13 | Cn1ncnc1NC(=O)c1ccc(S(C)(=O)=O)c([S+]([O-])CC2CC2)c1Cl (single isomer, unassigned) [Compound 2-30] | A (Fresh weight inhibition rate≥80% to 100%) | A (Fresh weight inhibition rate≥80% to 100%) | A (Fresh weight inhibition rate≥80% to 100%) | A (Fresh weight inhibition rate≥80% to 100%) | A (Fresh weight inhibition rate≥80% to 100%)
14 | CS(=O)(=O)c1ccc(C(=O)Nc2nnc(C3CC3)o2)c(Cl)c1[S+]([O-])C1CCC1 (racemic) [Compound 3-657] | B (Fresh weight inhibition rate≥260% to <80%) | A (Fresh weight inhibition rate≥80% to 100%) | A (Fresh weight inhibition rate≥80% to 100%) | A (Fresh weight inhibition rate≥80% to 100%) | A (Fresh weight inhibition rate≥80% to 100%)
15 | Cn1ncnc1NC(=O)c1ccc(S(C)(=O)=O)c([S+]([O-])C2CCCCC2)c1Cl (racemic) [Compound 2-48] | A (Fresh weight inhibition rate≥80% to 100%) | A (Fresh weight inhibition rate≥80% to 100%) | A (Fresh weight inhibition rate≥80% to 100%) | A (Fresh weight inhibition rate≥80% to 100%) | A (Fresh weight inhibition rate≥80% to 100%)
16 | CCc1nnc(NC(=O)c2ccc(S(C)(=O)=O)c([S+]([O-])C3CCC3)c2Cl)o1 (racemic) [Compound 3-425] | A (Fresh weight inhibition rate≥80% to 100%) | A (Fresh weight inhibition rate≥80% to 100%) | A (Fresh weight inhibition rate≥80% to 100%) | A (Fresh weight inhibition rate≥80% to 100%) | A (Fresh weight inhibition rate≥80% to 100%)
